Test results from patent publication US5206223A, “Method for inhibiting heparanase activity” (Yeda Research and Development Co. Ltd., priority 1986, dated 1993).
Entries after “also recorded” stand apart in the source; their conditions may differ.

Experiments:
heparanase = test: Inhibition of T lymphocyte heparanase activity (degradation of 35S-labeled heparan sulfate of extracellular matrix); type: biochemical; conditions: medium of activated T lymphocytes, 35S-labeled extracellular matrix, various concentrations
Method: Heparanase activity was induced into the extracellular medium bathing activated T lymphocytes and tested by incubating the medium with extracellular matrix whose heparan sulfate was labeled with ^35 S as described (Naparstek, Y., Cohen, I. R., Fuks, Z. and I. Vlodavsky. Activated T lymphocytes produce a matrix-degrading heparan sulphate endoglycosidase. Nature 310:241 (1984)). Inhibition of heparanase activity was tested by adding various concentrations of heparin or modified heparins to the reaction mixture and measuring the effect on degradation of the labeled heparin-sulfate as described (Naparstek, Y., Cohen, I. R., Fuks, Z. and I. Vlodavsky.
Activated T lymphocytes produce a matrix-degrading heparan sulphate endoglycosidase, Nature 310:241 (1984)). Totally desulfated heparin and N-desulfated, N-acetylated heparin was prepared as described. (Ayotte, L., A. S. Perlin. NMR spectroscopic observations related to the function of sulfate groups in heparin. Calcium binding vs. biological activity. Carbohydrate Res. 145:267 (1986)).

adjuvant arthritis = test: Adjuvant arthritis induced with M. tuberculosis; type: in vivo, Lewis rats; conditions: for Inhibition of arthritis / Arthritis score (day 60): rat, in vivo; for Arthritis score (day 60): sc
skin allografts = test: Skin allograft survival (SJL/J skin on (BALB/c×C57BL/6)F1 mice); type: in vivo; conditions: 10 mg/kg daily, saline control 10 days
Method: FIG. 1. Treatment with heparin (0.05 mg/kg) prevents rejection of skin allografts. Mice of hybrid strain (BALB/c×C57BL/6)F1 were grafted with skin from allogeneic SJL/J mice. The mice (20 per group) were treated daily with subcutaneous injections of saline (squares) or with heparin ("Leo", 0.05 mg/kg; diamonds) and scored for skin graft survival. Median survival for the control group was 10 days while that for the heparin treated group was 24 days.
FIG. 2. Treatment with N-desulfated, N-acetylated heparin (10 mg/kg) prevents rejection of skin allografts. Mice were grafted as described for FIG. 1 and treated daily with saline (squares) or N-desulfated, N-acetylated heparin (10 mg/kg; diamonds). The median survival of the skin allograft in the control group was 10 days while that in the treated group was 20 days.
The median survival time of the skin grafts on control mice treated with saline was […] while that on mice treated with 0.05 mg/kg daily of heparin was 26 days with maximal survival to 32 days.

[1] = tested on: experimental autoimmune encephalomyelitis (EAE); test: Experimental autoimmune encephalomyelitis (EAE) produced by anti-BP T lymphocytes; type: in vivo, Lewis rats; conditions: 10 mg/kg daily
Text: EAE is an experimental autoimmune disease with some features reminiscent of multiple sclerosis in humans. The disease is caused by T lymphocytes immunized to the basic protein (BP) of the central nervous system myelin. To test the effect of heparins on the ability of T lymphocytes to cause autoimmune disease, we used T lymphocytes sensitized against BP, either as T cell lines (Cohen, I. R. Experimental autoimmune encephalomyelitis: Pathogenesis and prevention. In: Immunoregulatory Processes in Multiple Sclerosis and Experimental Allergic Encephalomyelitis. A. A. Vandenbark and J. C. M. Raus, eds. Elsevier Biomedical Res. Amsterdam. 7:91-125 (1985)) or as populations of lymph node cells from BP immunized rats.
EAE was produced by inoculating Lewis rats with a T cell line of anti-BP T lymphocytes (10^6 cells) with anti-BP primed lymph node cells (10^7 cells) intravenously (Cohen, I. R. Experimental autoimmune encephalomyelitis: Pathogenesis and prevention. In: Immunoregulatory Processes in Multiple Sclerosis and Experimental Allergic Encephalomyelitis. A. A. Vandenbark and J. C. M. Raus, eds. Elsevier Biomedical Res. Amsterdam. 7:91-125 (1985)) One day before inoculation and daily for 10 days, the rats received either saline or the heparins.

activated T lymphocytes = test: Traffic of 51Cr-labeled lymphocytes from subcutaneous site and in blood; type: in vivo; conditions: rats or mice
Text: To test the effect of modified heparin on T lymphocyte traffic, we labelled the lymphocytes with ^51 Cr and measured the uptake of the labeled lymphocytes from a subcutaneous site and their persistence in the blood.
Furthermore, treatment with the modified heparin led to persistence of labeled lymphocytes in the blood for 4-5 days, while the untreated rats or mice cleared the labeled lymphocytes from the blood in 1 day. Thus, treatment with modified heparin inhibited the ability of T lymphocytes to enter the blood vessels, and once in the blood vessels, prevented the T lymphocytes from exiting. This can be attributed to inhibition of the heparanase enzyme activity needed to penetrate the extracellular matrix of the vessel wall.

[2] = rat, in vivo, 10 mg/kg

Substance | Inhibition of degradation of heparan sulfate by heparanase (heparanase) | Inhibition of arthritis (adjuvant arthritis) | Arthritis score (day 60) (adjuvant arthritis) | Median survival of skin allograft (skin allografts) | Duration of EAE ([1]; A: T cell line, None 4.2) | Day of onset of EAE ([1]; A: T cell line, None 5.2) | % incidence of EAE ([1]; A: T cell line, None 100) | Clinical score of EAE ([1]; A: T cell line, scale 1-4, None 2.4) | % incidence of EAE ([1]; C: primed lymph node cells, None 80) | Inhibition of adjuvant arthritis (FIG. 4) (adjuvant arthritis; 0.02 mg per rat (0.1 mg/kg) s.c. once daily from day 9, 0.1 mg/kg) | Inhibition of adjuvant arthritis (FIG. 4) (adjuvant arthritis; 0.04 mg s.c. once daily from day 9) | Histologic examination of the joints (adjuvant arthritis; 0.1 mg/kg/day from day 21 to 51, control rats severe signs of inflammation) | Remission of established adjuvant arthritis (FIG. 5) (adjuvant arthritis; 0.1 mg/kg/day s.c. from day 21 to 51) | Persistence of labeled lymphocytes in the site of injection into the tail (activated T lymphocytes; 0.05 mg/kg, control 1-2 days) | Persistence of labeled lymphocytes in the blood (activated T lymphocytes; untreated cleared in 1 day) | Anti-coagulant effect (prothrombin time) [2]
totally desulfated heparin [Heparin: totally desulfated] | no | no | 5 |  |  |  |  |  |  |  |  |  |  |  |  | 
N-desulfated, N-acetylated heparin | yes | yes | 0 | 20 days | 1.8 days | 6.4 | 50% | 0.8 | 0% | significant inhibition of arthritis; also recorded: maximum effect | ineffective | healthy joints | early remission of established adjuvant arthritis | 5 to 6 days | 4 to 5 days | no anti-coagulant effect
N-desulfated heparin |  | no | 5 |  |  |  |  |  |  |  |  |  |  |  |  | 
O-desulfated, N-acetylated heparin |  | yes | 0 |  |  |  |  |  |  |  |  |  |  |  |  | 
